From paper PMC10127221 (ACS Chemical Biology, 2023)
“Also recorded” adds a separate entry of the source. Read-outs that look alike come from different tables or passages of the source.

What was measured:
CamA [1] = target: T1, CamA (Clostridioides difficile, UniProt Q183J3); experiment: CamA methylation inhibition assay; assay type: biochemical; details: for inhibition of CamA activity at single concentration / inhibition of CamA activity (selectivity panel): 10 μM compound; for inhibition of CamA activity at single concentration: 50 nM CamA, 40 μM SAM (Figure 1B); for inhibition of CamA activity (selectivity panel): 40 μM SAM (Figure 4A); for fold difference in CamA inhibition between 11a and 11b: 11a more potent than 11b
T1 sequence (Q183J3 1-577): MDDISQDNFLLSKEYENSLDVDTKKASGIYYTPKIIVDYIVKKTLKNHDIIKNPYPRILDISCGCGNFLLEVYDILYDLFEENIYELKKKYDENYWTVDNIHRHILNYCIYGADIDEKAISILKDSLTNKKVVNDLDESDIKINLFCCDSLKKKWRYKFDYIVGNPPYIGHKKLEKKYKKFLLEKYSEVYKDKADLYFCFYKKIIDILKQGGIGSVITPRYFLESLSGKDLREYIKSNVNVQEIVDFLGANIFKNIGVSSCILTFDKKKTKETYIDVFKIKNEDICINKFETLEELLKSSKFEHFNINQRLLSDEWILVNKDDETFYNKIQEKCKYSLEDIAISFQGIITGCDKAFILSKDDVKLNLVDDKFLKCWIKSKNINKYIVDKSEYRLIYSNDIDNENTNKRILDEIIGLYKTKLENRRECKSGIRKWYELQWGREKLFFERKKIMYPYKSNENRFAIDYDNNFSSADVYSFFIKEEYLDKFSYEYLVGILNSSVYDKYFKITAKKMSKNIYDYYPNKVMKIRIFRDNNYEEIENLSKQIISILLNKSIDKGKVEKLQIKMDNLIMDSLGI

PCIF1 = PCIF1 (Homo sapiens, UniProt Q9H4Z3); experiment: Compound selectivity assay; assay type: biochemical; details: read-out: inhibition of PCIF1 activity
Dam = target: T2, Dam (Escherichia coli, UniProt P0AEE8); experiment: Compound selectivity assay; assay type: biochemical; details: read-out: inhibition of Dam activity, 10 μM compound, 40 μM SAM (Figure 4C)
T2 sequence (P0AEE8 1-278): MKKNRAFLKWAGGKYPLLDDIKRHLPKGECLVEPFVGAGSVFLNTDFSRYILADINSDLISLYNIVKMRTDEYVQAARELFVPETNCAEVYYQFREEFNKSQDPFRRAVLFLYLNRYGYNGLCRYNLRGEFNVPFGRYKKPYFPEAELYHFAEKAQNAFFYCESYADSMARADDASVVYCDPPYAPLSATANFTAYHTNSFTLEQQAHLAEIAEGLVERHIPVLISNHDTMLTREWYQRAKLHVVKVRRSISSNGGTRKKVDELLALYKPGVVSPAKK

MettL3–MettL14 = MettL3–MettL14 (Homo sapiens, UniProt Q86U44); experiment: Compound selectivity assay; assay type: biochemical; details: for inhibition at 10 µM: read-out: inhibition of MettL3–MettL14 activity
MettL5–Trm112 = MettL5–Trm112 (Homo sapiens, UniProt Q9NRN9); experiment: Compound selectivity assay; assay type: biochemical; details: read-out: inhibition of MettL5–Trm112 activity
CcrM = CcrM (Caulobacter vibrioides, UniProt P0CAW2); experiment: Compound selectivity assay; assay type: biochemical; details: read-out: inhibition of CcrM activity, 10 μM compound, 40 μM SAM (Figure 4B)
MettL16 = target: T3, MettL16 (Homo sapiens, UniProt Q86W50); experiment: Compound selectivity assay; assay type: biochemical; details: read-out: inhibition of MettL16 activity, 10 μM compound, 160 μM SAM (Figure 4F)
T3 sequence (Q86W50 1-562): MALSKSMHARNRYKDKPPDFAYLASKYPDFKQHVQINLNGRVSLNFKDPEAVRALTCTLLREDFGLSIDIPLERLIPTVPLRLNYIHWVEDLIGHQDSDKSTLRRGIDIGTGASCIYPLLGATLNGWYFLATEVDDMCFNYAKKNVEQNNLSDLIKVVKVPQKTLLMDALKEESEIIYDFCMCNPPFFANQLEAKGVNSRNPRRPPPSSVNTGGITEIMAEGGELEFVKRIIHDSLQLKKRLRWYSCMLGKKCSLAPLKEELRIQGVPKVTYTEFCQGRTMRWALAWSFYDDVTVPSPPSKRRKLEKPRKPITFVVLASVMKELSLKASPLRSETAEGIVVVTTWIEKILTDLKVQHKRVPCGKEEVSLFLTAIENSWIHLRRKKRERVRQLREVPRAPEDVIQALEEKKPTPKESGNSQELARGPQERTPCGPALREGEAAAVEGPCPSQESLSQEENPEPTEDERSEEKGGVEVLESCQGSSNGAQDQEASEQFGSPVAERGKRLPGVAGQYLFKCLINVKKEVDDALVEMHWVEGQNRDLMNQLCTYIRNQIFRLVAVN

PRMT3 = PRMT3 (Homo sapiens, UniProt O60678); experiment: PRMT3 inhibition, fluorescence-based SAHH-coupled assay; assay type: biochemical
PRMT1 = PRMT1 (Homo sapiens, UniProt Q99873); experiment: PRMT1 inhibition, fluorescence-based SAHH-coupled assay; assay type: biochemical; details: for IC50: IC50 PRMT1, 0.1 μM PRMT1, 10 μM SAM, 5 μM H4 peptide (1–21)
CamA [2] = target: T1, CamA; details: read-out: Km of CamA for SAM; previous measurements; cited from earlier work
MettL5 = details: read-out: SAM Km of MettL5; cited from earlier work

Chain of MettL5–Trm112 (Q9NRN9 whole entry): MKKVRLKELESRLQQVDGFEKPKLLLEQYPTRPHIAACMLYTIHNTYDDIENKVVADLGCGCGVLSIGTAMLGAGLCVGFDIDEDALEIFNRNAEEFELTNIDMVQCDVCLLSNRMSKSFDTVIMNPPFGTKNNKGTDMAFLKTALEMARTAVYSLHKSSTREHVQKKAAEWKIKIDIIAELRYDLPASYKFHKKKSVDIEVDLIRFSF
Chain of MettL5–Trm112 (Q9UI30 whole entry partner): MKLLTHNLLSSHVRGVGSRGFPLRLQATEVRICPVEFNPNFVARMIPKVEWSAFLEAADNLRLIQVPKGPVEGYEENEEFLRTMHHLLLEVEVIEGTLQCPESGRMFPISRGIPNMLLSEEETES
Chain of PCIF1 (Q9H4Z3 whole entry): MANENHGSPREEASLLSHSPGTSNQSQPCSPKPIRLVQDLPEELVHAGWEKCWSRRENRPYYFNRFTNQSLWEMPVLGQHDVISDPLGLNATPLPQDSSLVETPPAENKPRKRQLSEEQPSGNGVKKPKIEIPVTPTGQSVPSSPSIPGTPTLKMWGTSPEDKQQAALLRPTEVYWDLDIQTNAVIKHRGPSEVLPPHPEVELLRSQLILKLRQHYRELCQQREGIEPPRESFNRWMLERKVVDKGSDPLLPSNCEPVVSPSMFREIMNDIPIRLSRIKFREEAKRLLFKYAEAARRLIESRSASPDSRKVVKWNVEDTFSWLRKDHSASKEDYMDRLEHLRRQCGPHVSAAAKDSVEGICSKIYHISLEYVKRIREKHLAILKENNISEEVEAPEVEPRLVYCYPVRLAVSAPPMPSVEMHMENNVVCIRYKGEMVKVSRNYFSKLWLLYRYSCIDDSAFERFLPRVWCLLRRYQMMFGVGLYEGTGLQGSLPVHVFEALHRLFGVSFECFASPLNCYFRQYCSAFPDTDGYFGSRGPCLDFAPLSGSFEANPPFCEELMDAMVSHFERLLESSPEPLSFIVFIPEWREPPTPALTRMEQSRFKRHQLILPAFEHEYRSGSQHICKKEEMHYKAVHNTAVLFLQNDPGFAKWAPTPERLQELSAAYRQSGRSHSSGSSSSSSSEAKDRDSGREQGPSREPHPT
Chain of PRMT1 (Q99873 10-352 isoform Q99873-3): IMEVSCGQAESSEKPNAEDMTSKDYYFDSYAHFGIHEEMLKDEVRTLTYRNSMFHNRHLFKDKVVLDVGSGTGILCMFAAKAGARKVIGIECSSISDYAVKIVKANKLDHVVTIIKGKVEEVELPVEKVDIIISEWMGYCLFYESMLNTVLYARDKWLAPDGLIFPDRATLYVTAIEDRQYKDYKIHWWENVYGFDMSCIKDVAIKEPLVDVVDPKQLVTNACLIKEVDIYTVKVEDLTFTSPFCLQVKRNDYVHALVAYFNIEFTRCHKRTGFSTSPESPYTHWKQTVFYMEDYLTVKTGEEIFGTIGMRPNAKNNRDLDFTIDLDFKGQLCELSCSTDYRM
Chain of MettL3–MettL14 (Q86U44 whole entry): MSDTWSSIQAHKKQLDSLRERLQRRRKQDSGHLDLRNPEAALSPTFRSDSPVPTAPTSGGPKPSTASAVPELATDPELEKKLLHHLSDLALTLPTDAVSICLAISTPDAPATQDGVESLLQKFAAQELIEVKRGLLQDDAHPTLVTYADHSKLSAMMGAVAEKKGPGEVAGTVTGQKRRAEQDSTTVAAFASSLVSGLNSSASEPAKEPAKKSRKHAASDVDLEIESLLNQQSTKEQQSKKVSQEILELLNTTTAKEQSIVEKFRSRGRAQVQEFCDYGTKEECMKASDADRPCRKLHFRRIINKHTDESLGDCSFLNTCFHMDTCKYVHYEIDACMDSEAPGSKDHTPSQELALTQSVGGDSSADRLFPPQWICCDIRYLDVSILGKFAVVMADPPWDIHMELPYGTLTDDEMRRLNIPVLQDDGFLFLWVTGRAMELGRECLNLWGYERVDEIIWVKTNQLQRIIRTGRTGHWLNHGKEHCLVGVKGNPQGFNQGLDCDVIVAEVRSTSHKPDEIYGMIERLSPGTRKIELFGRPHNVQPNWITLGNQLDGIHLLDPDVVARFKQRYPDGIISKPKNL
Chain of MettL3–MettL14 (Q9HCE5 whole entry partner): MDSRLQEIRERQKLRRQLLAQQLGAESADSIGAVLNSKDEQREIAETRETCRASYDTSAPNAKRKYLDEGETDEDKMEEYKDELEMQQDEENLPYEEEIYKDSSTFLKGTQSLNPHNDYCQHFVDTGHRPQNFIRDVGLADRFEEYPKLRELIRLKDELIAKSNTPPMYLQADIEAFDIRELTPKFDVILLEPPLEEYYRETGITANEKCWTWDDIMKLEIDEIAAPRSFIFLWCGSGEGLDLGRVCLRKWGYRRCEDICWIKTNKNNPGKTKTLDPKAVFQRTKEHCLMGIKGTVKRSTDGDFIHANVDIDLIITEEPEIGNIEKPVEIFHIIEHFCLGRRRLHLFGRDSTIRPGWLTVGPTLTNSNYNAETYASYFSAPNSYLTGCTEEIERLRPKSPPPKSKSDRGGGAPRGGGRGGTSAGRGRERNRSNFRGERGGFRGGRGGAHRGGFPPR
Chain of CcrM (P0CAW2 whole entry): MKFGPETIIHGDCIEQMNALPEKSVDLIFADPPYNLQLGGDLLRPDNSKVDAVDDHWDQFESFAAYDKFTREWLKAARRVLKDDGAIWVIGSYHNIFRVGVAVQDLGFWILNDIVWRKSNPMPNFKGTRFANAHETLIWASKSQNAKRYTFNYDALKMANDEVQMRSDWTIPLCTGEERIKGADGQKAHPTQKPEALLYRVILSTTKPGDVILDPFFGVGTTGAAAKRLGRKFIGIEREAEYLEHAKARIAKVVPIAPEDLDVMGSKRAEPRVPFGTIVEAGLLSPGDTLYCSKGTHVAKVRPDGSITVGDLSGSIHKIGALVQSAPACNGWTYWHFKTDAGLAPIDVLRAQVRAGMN
Chain of PRMT3 (O60678 211-531): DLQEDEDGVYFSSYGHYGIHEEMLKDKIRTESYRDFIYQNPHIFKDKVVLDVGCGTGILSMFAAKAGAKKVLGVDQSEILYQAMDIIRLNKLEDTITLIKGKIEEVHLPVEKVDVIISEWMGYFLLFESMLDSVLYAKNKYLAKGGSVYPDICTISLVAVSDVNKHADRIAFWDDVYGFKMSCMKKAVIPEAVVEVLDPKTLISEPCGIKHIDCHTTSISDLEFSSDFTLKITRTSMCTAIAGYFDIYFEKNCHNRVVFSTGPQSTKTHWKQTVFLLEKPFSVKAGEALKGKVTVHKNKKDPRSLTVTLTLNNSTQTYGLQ

In the case of `N=C(NCCCSC[C@H]1O[C@@H](n2cnc3c(N)ncnc32)[C@H](O)[C@@H]1O)NC1CCCCC1` [6d], the “inhibition of CamA activity at single concentration” value (CamA [1]) is reported as roughly 60%.
Molecule `N=C(NCCCSC[C@H]1O[C@@H](n2cnc3c(N)ncnc32)[C@H](O)[C@@H]1O)NCC1CCCCC1` [6e] has an inhibition at 10 µM (PCIF1) of no more than 50%, an inhibition at 10 µM (Dam) of no more than 50% and an IC50 (MettL3–MettL14) greater than 10 µM. The inhibition at 10 µM (MettL3–MettL14) was roughly 50%, the inhibition at 10 µM (MettL5–Trm112) was roughly 50% and the inhibition at 10 µM (CcrM) was no more than 50%. For the same molecule, the inhibition at 10 µM (MettL16) was no more than 50%, the IC50 (PRMT3) was 6.5 µM and the “inhibition of CamA activity at single concentration” value (CamA [1]) was roughly 85%. The “inhibition of CamA activity (selectivity panel)” value (CamA [1]) was no less than 80%, the “fold improved potency of CamA inhibition relative to SGC0946” value (CamA [1]; ratio of IC50 values) was greater than 3 × and the “fold weaker inhibition of CamA than of PRMT1” value (CamA [1]; ratio of IC50 values CamA vs PRMT1) was 12.5 ×. For the same molecule, the “fold stronger inhibition of CamA than of PRMT3” value (CamA [1]; ratio of IC50 values CamA vs PRMT3) was greater than 4 ×.
With `N=C(NCCCSC[C@H]1O[C@@H](n2cnc3c(N)ncnc32)[C@H](O)[C@@H]1O)NCc1ccccc1` [6g] the “inhibition of CamA activity at single concentration” value (CamA [1]) was roughly 10%.
`N=C(NCCSC[C@H]1O[C@@H](n2cnc3c(NCCCc4ccccc4)ncnc32)[C@H](O)[C@@H]1O)NCC1CCCCC1` [11a, 1-(cyclohexylmethyl)-3-(2-((((2S,3S,4R,5R)-3,4-dihydroxy-5-(6-((3-phenylpropyl)amino)-9H-purin-9-yl)tetrahydrofuran-2-yl)methyl)thio)ethyl)guanidine] gave an inhibition at 10 µM (PCIF1) of no more than 50%, an inhibition at 10 µM (MettL3–MettL14) of no more than 50% and an inhibition at 10 µM (MettL5–Trm112) of no more than 50%. For the same molecule, the IC50 (PRMT3) was greater than 100 µM, the IC50 (PRMT1) was 14 µM and the “fold reduction of PRMT1 inhibition from that of 6e” value (PRMT1; ratio of IC50 values) was roughly 116 ×. The IC50 (CamA [1]) was roughly 0.15 µM, the Ki (CamA [1]) was 0.09 µM and the “inhibition of CamA activity (selectivity panel)” value (CamA [1]) was no less than 80%. The “fold difference in CamA inhibition between 11a and 11b” value (CamA [1]) was 1.8 ×, the “fold improvement of CamA inhibition relative to 6e” value (CamA [1]; ratio of IC50 values) was 10 × and the “fold improvement of CamA inhibition relative to 7” value (CamA [1]; ratio of IC50 values) was 5 ×. The “mode of CamA inhibition (Lineweaver–Burk plot)” value (CamA [1]; with respect to SAM) was “competitive inhibition; also recorded: competitive inhibitor of SAM”.
Molecule `N=C(NCCCSC[C@H]1O[C@@H](n2cnc3c(NCCCc4ccccc4)ncnc32)[C@H](O)[C@@H]1O)NCC1CCCCC1` [11b] has an inhibition at 10 µM (PCIF1) of no more than 50%, an inhibition at 10 µM (Dam) of no more than 50% and an inhibition at 10 µM (MettL3–MettL14) of no more than 50%. For the same molecule, the inhibition at 10 µM (MettL5–Trm112) was roughly 50%, the inhibition at 10 µM (CcrM) was no more than 50% and the inhibition at 10 µM (MettL16) was no more than 50%. The IC50 (PRMT1) was 1.2 µM, the “fold reduction of PRMT1 inhibition from that of 6e” value (PRMT1; ratio of IC50 values) was 10 × and the “fold stronger inhibition of PRMT1 than 11a” value (PRMT1; ratio of IC50 values) was greater than 11 ×. For the same molecule, the IC50 (CamA [1]) was 0.27 µM and the “fold difference in CamA inhibition between 11a and 11b” value (CamA [1]) was 1.8 ×.
For `Nc1ncnc2c1ccn2[C@@H]1O[C@H]([C@H](O)c2ccccc2)[C@@H](O)[C@H]1O` [LLY-283, reference compound], the “inhibition of CamA compared with compounds 1–3 (in words)” value (CamA [1]; 10 μM, Figure 1B, also ref 31) was “much weaker inhibition”.
For `C[S+](CC[C@H](N)C(=O)[O-])C[C@H]1O[C@@H](n2cnc3c(N)ncnc32)[C@H](O)[C@@H]1O` (stereo partly drawn) [SAM, S-Adenosyl-L-methionine], the Km (CamA [2]) is listed as greater than 17 µM, the Km (MettL5) is listed as 1 µM and the Km (CamA [1]; read-out: Km of CamA for SAM, Michaelis–Menten, varying SAM (Figure 2E)) is listed as 25 µM.
With `OC[C@H]1O[C@@H](n2cnc3c(NCCCc4ccccc4)ncnc32)[C@H](O)[C@@H]1O` [compound 7, N6-phenylpropyladenosine] the inhibition at 10 µM (PCIF1) was no more than 50%, the inhibition at 10 µM (Dam) was no more than 50% and the inhibition at 10 µM (MettL3–MettL14) was no more than 50%. The inhibition at 10 µM (MettL5–Trm112) was no more than 50%, the inhibition at 10 µM (CcrM) was no more than 50% and the inhibition at 10 µM (MettL16) was no more than 50%. The “inhibition of PRMT3 (in words)” value (PRMT3) was “does not significantly inhibit; also recorded: inhibits neither” and the “inhibition of PRMT1 (in words)” value (PRMT1) was “does not significantly inhibit; also recorded: inhibits neither”.
